Data: ChEMBL document CHEMBL3877251, “Synthesis and biological evaluation of a series of N-alkylated imidazole alkanoic acids as mGAT3 selective GABA uptake inhibitors” (Eur J Med Chem, 2016)

Experiments:
Format in all cases: cell-based
GABA transporter 2 = target: T1, GABA transporter 2 (Mus musculus, UniProt P31651); test: Inhibition of mouse GAT2 expressed in HEK293 cells assessed as decrease in [3H]GABA uptake preincubated for 25 mins followed by [3H]GABA addition measured after 10 mins by liquid scintillation counter method
T1 sequence (P31651 whole entry): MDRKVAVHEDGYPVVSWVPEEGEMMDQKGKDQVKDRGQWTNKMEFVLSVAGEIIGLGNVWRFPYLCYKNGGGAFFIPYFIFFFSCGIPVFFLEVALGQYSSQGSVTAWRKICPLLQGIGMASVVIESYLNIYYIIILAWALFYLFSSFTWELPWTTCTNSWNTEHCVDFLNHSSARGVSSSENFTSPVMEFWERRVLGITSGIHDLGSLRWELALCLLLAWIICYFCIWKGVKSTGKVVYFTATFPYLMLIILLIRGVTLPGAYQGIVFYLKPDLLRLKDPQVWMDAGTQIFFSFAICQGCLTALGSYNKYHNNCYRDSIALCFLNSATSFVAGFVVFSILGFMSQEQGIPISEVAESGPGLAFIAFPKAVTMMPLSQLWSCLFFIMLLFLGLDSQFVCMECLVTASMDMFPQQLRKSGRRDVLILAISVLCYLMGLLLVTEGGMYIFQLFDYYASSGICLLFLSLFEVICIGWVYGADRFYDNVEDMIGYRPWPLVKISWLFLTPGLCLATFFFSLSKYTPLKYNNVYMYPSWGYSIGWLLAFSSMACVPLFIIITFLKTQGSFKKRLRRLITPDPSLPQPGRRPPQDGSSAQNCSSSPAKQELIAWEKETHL

[1] = target: Sodium- and chloride-dependent GABA transporter 1 (Mus musculus, UniProt P31648); test: Inhibition of mouse GAT1 expressed in HEK293 cells assessed as decrease in [3H]GABA uptake preincubated for 25 mins followed by [3H]GABA addition measured after 4 mins by liquid scintillation counter method
GABA transporter 3 = target: T2, GABA transporter 3 (Mus musculus, UniProt P31649); test: Inhibition of mouse GAT3 expressed in HEK293 cells assessed as decrease in [3H]GABA uptake preincubated for 25 mins followed by [3H]GABA addition measured after 4 mins by liquid scintillation counter method
T2 sequence (P31649 whole entry): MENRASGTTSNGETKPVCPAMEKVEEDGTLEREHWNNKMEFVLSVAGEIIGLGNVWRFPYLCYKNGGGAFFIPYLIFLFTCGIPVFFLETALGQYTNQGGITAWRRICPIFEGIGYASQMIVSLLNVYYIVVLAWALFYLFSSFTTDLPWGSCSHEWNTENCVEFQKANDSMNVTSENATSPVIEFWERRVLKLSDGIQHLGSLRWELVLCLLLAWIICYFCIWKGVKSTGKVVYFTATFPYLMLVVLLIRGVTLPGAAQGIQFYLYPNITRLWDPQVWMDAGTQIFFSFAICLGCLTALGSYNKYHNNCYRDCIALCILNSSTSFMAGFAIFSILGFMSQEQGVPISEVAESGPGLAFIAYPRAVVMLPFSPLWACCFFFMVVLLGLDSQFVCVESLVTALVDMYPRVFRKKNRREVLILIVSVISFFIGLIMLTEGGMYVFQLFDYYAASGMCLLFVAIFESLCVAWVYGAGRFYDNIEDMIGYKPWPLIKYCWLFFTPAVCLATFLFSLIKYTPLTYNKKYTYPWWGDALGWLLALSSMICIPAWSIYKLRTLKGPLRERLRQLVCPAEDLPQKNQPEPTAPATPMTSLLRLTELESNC

GABA transporter 4 = target: T3, GABA transporter 4 (Mus musculus, UniProt P31650); test: Inhibition of mouse GAT4 expressed in HEK293 cells assessed as decrease in [3H]GABA uptake preincubated for 25 mins followed by [3H]GABA addition measured after 4 mins by liquid scintillation counter method
T3 sequence (P31650 whole entry): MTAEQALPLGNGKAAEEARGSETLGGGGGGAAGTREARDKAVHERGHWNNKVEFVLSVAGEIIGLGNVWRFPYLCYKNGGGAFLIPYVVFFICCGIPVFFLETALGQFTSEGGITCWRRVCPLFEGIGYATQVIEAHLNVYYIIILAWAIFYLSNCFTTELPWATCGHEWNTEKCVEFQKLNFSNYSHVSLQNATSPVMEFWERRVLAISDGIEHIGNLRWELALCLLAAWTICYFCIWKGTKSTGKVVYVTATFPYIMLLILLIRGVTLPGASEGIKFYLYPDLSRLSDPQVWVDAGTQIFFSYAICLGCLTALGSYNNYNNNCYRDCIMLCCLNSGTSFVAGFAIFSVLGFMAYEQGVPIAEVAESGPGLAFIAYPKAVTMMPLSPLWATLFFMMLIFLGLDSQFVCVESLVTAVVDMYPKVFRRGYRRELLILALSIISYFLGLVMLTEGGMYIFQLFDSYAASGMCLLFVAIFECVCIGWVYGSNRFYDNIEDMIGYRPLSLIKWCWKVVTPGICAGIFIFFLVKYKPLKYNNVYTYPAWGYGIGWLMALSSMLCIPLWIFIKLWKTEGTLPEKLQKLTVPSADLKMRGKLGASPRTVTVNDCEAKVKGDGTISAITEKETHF

[2] = target: Sodium- and chloride-dependent GABA transporter 1 (Mus musculus) (UniProt P31648); test: Inhibition of mouse GAT1 expressed in HEK293 cells assessed as decrease in [3H]GABA uptake at 100 uM preincubated for 25 mins followed by [3H]GABA addition measured after 4 mins by liquid scintillation counter method
[3] = target: T4, GABA transporter 2 (Mus musculus) (UniProt P31651); test: Inhibition of mouse GAT2 expressed in HEK293 cells assessed as decrease in [3H]GABA uptake at 100 uM preincubated for 25 mins followed by [3H]GABA addition measured after 10 mins by liquid scintillation counter method
T4 sequence (whole entry): T1 sequence (P31651 whole entry)

[4] = target: T5, GABA transporter 4 (Mus musculus) (UniProt P31650); test: Inhibition of mouse GAT4 expressed in HEK293 cells assessed as decrease in [3H]GABA uptake at 100 uM preincubated for 25 mins followed by [3H]GABA addition measured after 4 mins by liquid scintillation counter method
T5 sequence (whole entry): T3 sequence (P31650 whole entry)

[5] = target: T6, GABA transporter 3 (Mus musculus) (UniProt P31649); test: Inhibition of mouse GAT3 expressed in HEK293 cells assessed as decrease in [3H]GABA uptake at 100 uM preincubated for 25 mins followed by [3H]GABA addition measured after 4 mins by liquid scintillation counter method
T6 sequence (whole entry): T2 sequence (P31649 whole entry)

[6] = target: T7, Sodium- and chloride-dependent betaine transporter (Homo sapiens, UniProt P48065); test: Inhibition of human BGT-1 expressed in thymidine kinase deficient mouse LM cells assessed as decrease in [3H]GABA uptake after 10 mins by scintillation counter method
T7 sequence (P48065 whole entry): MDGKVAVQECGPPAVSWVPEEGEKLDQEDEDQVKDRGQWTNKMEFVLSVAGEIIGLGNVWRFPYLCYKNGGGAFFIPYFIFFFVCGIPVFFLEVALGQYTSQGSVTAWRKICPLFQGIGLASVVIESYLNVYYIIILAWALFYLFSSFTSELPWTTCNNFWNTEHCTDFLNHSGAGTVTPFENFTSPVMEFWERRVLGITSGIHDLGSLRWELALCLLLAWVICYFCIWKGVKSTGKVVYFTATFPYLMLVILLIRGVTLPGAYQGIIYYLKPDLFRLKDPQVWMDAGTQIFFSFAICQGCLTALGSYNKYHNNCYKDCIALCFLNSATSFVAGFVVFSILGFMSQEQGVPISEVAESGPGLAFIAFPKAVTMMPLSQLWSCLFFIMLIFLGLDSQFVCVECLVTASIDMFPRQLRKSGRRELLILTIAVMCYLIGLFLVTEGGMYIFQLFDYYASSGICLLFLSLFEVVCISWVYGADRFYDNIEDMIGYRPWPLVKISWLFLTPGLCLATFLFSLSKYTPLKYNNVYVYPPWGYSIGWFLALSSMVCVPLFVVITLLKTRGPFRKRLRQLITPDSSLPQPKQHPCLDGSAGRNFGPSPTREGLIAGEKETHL

Row | IC50 (GABA transporter 2) | IC50 [1] | IC50 (GABA transporter 3) | IC50 (GABA transporter 4) | inhibition [2] | inhibition [3] | inhibition [4] | inhibition [5] | IC50 [6] | Structure (SMILES)
1 | – | – | 47.9 µM | 39.8 µM | 62.4% | 24.2% | – | – | – | COc1ccc(C2(/C=C/Cn3cnc(CC(=O)O)c3)c3ccccc3-c3ccccc32)cc1
2 | – | – | – | – | 73.7% | 77.3% | 47.2% | – | – | O=C(O)/C=C/c1ncc[nH]1
3 | 97.7 µM | – | – | – | 84.2% | – | 61.4% | 51.4% | – | COc1ccc(C2(OCCCn3cnc(CC(=O)O)c3)c3ccccc3-c3ccccc32)cc1
4 | – | – | 81.3 µM | – | 50.1% | 70.1% | 55.6% | – | – | COc1ccc(C2(OCCCn3cncc3CC(=O)O)c3ccccc3-c3ccccc32)cc1
5 | – | 79.4 µM | – | – | – | 38.5% | 77.4% | 68% | – | COc1ccc(C2(OCCCCCn3cncc3CC(=O)O)c3ccccc3-c3ccccc32)cc1
6 | – | – | 93.3 µM | 30.2 µM | 73.1% | 66.3% | – | – | 27 µM | COc1ccc(C2(OCCN3CCCC(C(=O)O)C3)c3ccccc3-c3ccccc32)cc1 (stereo not drawn)
7 | 12.6 µM | 11.7 µM | 23.4 µM | 29.5 µM | – | – | – | – | – | COc1ccc(C2(OCCCCCn3ccnc3CCC(=O)O)c3ccccc3-c3ccccc32)cc1
8 | 24 µM | – | 39.8 µM | 49 µM | 64.9% | – | – | – | – | COc1ccc(C2(OCCCCn3cnc(CC(=O)O)c3)c3ccccc3-c3ccccc32)cc1
9 | – | – | – | – | 67.2% | 57.9% | 46% | 50.8% | – | COc1ccc(C2(OCCn3cncc3CC(=O)O)c3ccccc3-c3ccccc32)cc1
10 | 61.7 µM | – | 97.7 µM | 105 µM | 72.7% | – | – | – | – | COc1ccc(C2(OCCCCCn3cnc(CC(=O)O)c3)c3ccccc3-c3ccccc32)cc1
11 | – | – | – | – | – | 52% | 73% | 64% | – | Cc1ccsc1C(=CCCN1CCC[C@@H](C(=O)O)C1)c1sccc1C
12 | – | 37.2 µM | 28.2 µM | – | – | 48.3% | 50.7% | – | – | COc1ccc(C2(OCCOCCn3ccnc3CCC(=O)O)c3ccccc3-c3ccccc32)cc1
13 | 58.9 µM | 74.1 µM | – | – | – | – | 53.7% | 48.1% | – | O=C(O)CCc1nccn1CCC=C(c1ccccc1)c1ccccc1
14 | – | 100 µM | – | – | – | 31.2% | 55.4% | 48.6% | – | COc1ccc(C2(OCCCn3ccnc3CCC(=O)O)c3ccccc3-c3ccccc32)cc1

More lines, now with the values behind:

Row | Structure (SMILES) | IC50 (GABA transporter 2) | IC50 [1] | IC50 (GABA transporter 3) | IC50 (GABA transporter 4) | inhibition [2] | inhibition [3] | inhibition [4] | inhibition [5] | IC50 [6]
15 | COc1ccc(C2(OCCCCn3ccnc3CCC(=O)O)c3ccccc3-c3ccccc32)cc1 | 25.1 µM | 141 µM | 87.1 µM | 174 µM | – | – | – | – | –
16 | O=C(O)CCc1ncc[nH]1 | 525 µM | – | 28.8 µM | 309 µM | 62.8% | – | – | – | –
17 | COc1ccc(C2(OCCCCn3cncc3CC(=O)O)c3ccccc3-c3ccccc32)cc1 | 22.9 µM | – | – | – | 70.8% | – | 59% | 41.7% | –
18 | COc1ccc(C2(/C=C/Cn3ccnc3CCC(=O)O)c3ccccc3-c3ccccc32)cc1 | 25.1 µM | – | 35.5 µM | 43.7 µM | 48.5% | – | – | – | –
19 | COc1ccc(C2(OCCn3cnc(CC(=O)O)c3)c3ccccc3-c3ccccc32)cc1 | – | – | – | – | 56.6% | 44% | 85.4% | 46.7% | –
20 | COc1ccc(C2(OCCCCCn3ccnc3/C=C/C(=O)O)c3ccccc3-c3ccccc32)cc1 | 28.8 µM | 12.6 µM | – | 10.2 µM | – | – | – | – | –
21 | COc1ccc(C2(/C=C/Cn3cncc3CC(=O)O)c3ccccc3-c3ccccc32)cc1 | 166 µM | 126 µM | 79.4 µM | 110 µM | – | – | – | – | –
22 | COc1ccc(C2(OCCn3ccnc3CCC(=O)O)c3ccccc3-c3ccccc32)cc1 | – | – | – | – | 64.8% | 53% | 58.3% | 43.2% | –
23 | COc1ccc(C2(OC/C=C/Cn3ccnc3CCC(=O)O)c3ccccc3-c3ccccc32)cc1 | 32.4 µM | – | – | – | 55.8% | – | 61.4% | 43.9% | –
24 | COc1ccc(C2(/C=C/COCCn3ccnc3CCC(=O)O)c3ccccc3-c3ccccc32)cc1 | 30.9 µM | 26.3 µM | 24.5 µM | 21.9 µM | – | – | – | – | –
25 | COc1ccc(C2(OC/C=C\Cn3ccnc3CCC(=O)O)c3ccccc3-c3ccccc32)cc1 | 37.2 µM | 70.8 µM | 15.8 µM | 13.2 µM | – | – | – | – | –
